Test results as given in paper PMC9424909, “Rutin alleviated acrolein-induced cytotoxicity in Caco-2 and GES-1 cells by forming a cyclic hemiacetal product” (Frontiers in Nutrition, 2022).

Key:
[1] = elimination of ACR by rutin in PBS (DNPH derivatization, HPLC); conditions: for amount of ACR reduced compared with the initial content / content of ACR (residual) / content of residual ACR: 2 h; for content of ACR (residual): rutin/ACR 1/1, initial content 200 μmol
Method: In the present study, three variables were taken into consideration, namely temperature (40–100°C), reaction duration (0.5–8 h), and molar ratio of rutin to ACR (from 1/2 to 4/1), and the remaining level of ACR was determined. A mixture of rutin, ACR, and 20 mL of PBS was prepared in a 50 mL three-necked flask and reacted under light-proof conditions. The different variables were studied separately while keeping other conditions constant as follows: temperature of 80°C, reaction time of 2 h, and the molar ratio of rutin/ACR of 1/1. At the end of each reaction, ACR was derivatized with DNPH, and its content was determined as below.
The stock solution equivalent to ACR concentration of […] was prepared by dissolving 10.7 mg of ACR-DNPH standard with 25 mL of acetonitrile (ACN). And the ACR-DNPH standard curve (2 to 100 μg/mL) was established by serial dilutions of the stock solution. The HPLC conditions were as below. An Agilent 1,260 Infinity II HPLC system (Agilent Technologies, Palo Alto, CA) equipped with a DAD and a Zorbax SB-C18 column (250 × 4.6 mm; 5 μm; Agilent Technologies) was utilized for the determination of ACR-DNPH. The separation was conducted under isocratic conditions by introducing 50% A (water) and 50% B (ACN) at a flow rate of 1.0 mL/min for 15 min. The temperature was 35°C, the injection volume was 20 μL, and the detection wavelength was set at 365 nm. According to the retention time as well as the peak area, the standard curve of ACR-DNPH derivates was obtained.
DNPH was recrystallized as the followings before use: excess DNPH was added into 200 mL of methanol (MeOH) heating for 1 h, and the supernatant was collected and further heated at 60°C to remove 95% of the solvent; the crystals were then washed twice with 100 mL of MeOH, transferred to another clean beaker, and co-heated with 200 mL of MeOH; and the resulting crystal was stored under seal. The 0.1 M DNPH solution was prepared by dissolving 5.0548 g of the purified DNPH in 250 mL of ACN containing 5 mL of 10% phosphoric acid solution.
Derivatization of ACR with DNPH was conducted in accordance with Reilly et al. ([36]). In short, one milliliter of each sample was incubated with 1 mL of diluted DNPH solution (0.01 M) for 40 min at 40°C, followed by extraction with 10 mL of MeOH/water (75: 25, v/v). After centrifugation (6,000 rpm, 10 min), the supernatant was collected and was further extracted with 10 mL of dichloromethane to obtain the DNPH derivatives. Prior to HPLC analysis as above, the DNPH derivatives were re-dissolved in 1 mL of HPLC grade ACN and passed through a 0.45 μm filter (Bie & Berntsen, Rødovre, Denmark).

Caco-2 cells [2] = test: cell survival, CCK-8 assay; type: cell-based, human; conditions: for cell viability (viable cell number): incubation 24 h
Method: (§1) The Caco-2 cell line and GES-1 cell line were obtained from iCell Bioscience (Shanghai, China). As described by Chai et al. ([40]) with a bit modification, the Caco-2 cells were cultured within a medium composed of DMEM supplemented with 1% (v/v) NEAA, 10% (v/v) FBS, and penicillin and streptomycin (100 U/mL). GES-1 cells were cultivated according to Xu et al. ([41]) with slight modifications as follows: DMEM medium including 1% (v/v) NEAA, 10% (v/v) FBS, and penicillin and streptomycin (100 U/mL). Cells were all maintained in a humidified incubator containing 5% CO2 and 95% air at 37°C.
(§2) The effects of ACR and RAC on cell survival (both Caco-2 and GES-1 cells) were measured by the CCK-8 assay ([41]). Briefly, cells (1 × 10^4 cells/well) were seeded into a 96-well plate and cultivated overnight. […] After cells were rinsed twice with PBS and resuspended in 100 μL of DMEM supplemented with 10% FBS, 10 μL of CCK-8 solution was added into each well and the plate was maintained for 1 h in the incubator. The plate was read at 450 nm on a microplate reader (BioTek, Epoch 2, USA), and all experiments were performed thrice. Cell viability was expressed as a percentage of the control group as shown below:
(§3) Cell viability (%) = A sample/A control × 100%
(§4) Where A sample was the absorbance (Abs) of the cells incubated with different concentrations of sample solutions, and A control was the Abs of the cells incubated without sample solution.

GES-1 cells [3] = test: cell survival, CCK-8 assay; type: cell-based, human; conditions: for cell viability (viable cell number): incubation 24 h
Method: as §1, §2, §3, §4

Caco-2 cells [4] = test: apoptosis assay, Annexin-V FITC/PI flow cytometry; type: cell-based, human; conditions: for apoptotic cells / number of viable cells: 24 h
Method: as §1
(§5) Cell apoptosis assay was conducted in refer to Abas et al. ([42]) with modifications. In short, cells at a density of 1 × 10^4 cells/well were seeded in 96-well plates and incubated overnight, followed by exposure to different concentrations of ACR and RAC for another 24 h. After that, cells were rinsed twice with PBS, resuspended in 200 μL of Annexin-binding buffer, and finally stained with Annexin-V FITC and PI (5 μL each) for 10 min at 37°C in darkness. After adding 400 μL of Annexin-binding buffer, the signal intensity was measured using a FACSCalibur (Becton Dickinson, CA, USA) flow cytometry within 1 h, and data was analyzed with FlowJo software (Ashland, OR, USA).

GES-1 cells [5] = test: apoptosis assay, Annexin-V FITC/PI flow cytometry; type: cell-based, human; conditions: 24 h
Method: as §1, §5

Caco-2 cells [6] = test: JC-1 staining, mitochondrial membrane potential (MMP); type: cell-based, human; conditions: 24 h
Method: as §1
(§6) After incubation with different concentrations of samples, the changes of MMP in Caco-2 and GES-1 cells were measured in accordance with Liu et al., with slight modifications ([43]). In brief, cells (1 × 10^4 cells/well) were exposed to different concentrations of ACR and RAC for 24 h, respectively. Then 500 μL of JC-1 staining solution was added into each well and the plate was further incubated at 37°C for 15 min. Cells were then rinsed twice with 1 mL of staining buffer and resuspended with 500 μL of staining buffer prior to MMP determination in the flow cytometry.

GES-1 cells [7] = test: as above; type: cell-based, human; conditions: 24 h
Method: as §1, §6

C[C@@H]1O[C@@H](OC[C@H]2O[C@@H](Oc3c(-c4ccc(O)c(O)c4)oc4cc(O)cc(O)c4c3=O)[C@H](O)[C@@H](O)[C@@H]2O)[C@H](O)[C@H](O)[C@H]1O [rutin, quercetin 3-O-rhamnosylglucoside]
amount of ACR reduced compared with the initial content ([1]; 40°C, rutin/ACR 1/1): 43.36%
content of ACR (residual) ([1]; 40°C): 113.28 µmol
amount of ACR reduced compared with the initial content ([1]; 60°C, rutin/ACR 1/1): 82.05%
content of ACR (residual) ([1]; 60°C): 35.9 µmol
amount of ACR reduced compared with the initial content ([1]; 80°C, rutin/ACR 1/1): 92.56%
content of ACR (residual) ([1]; 80°C): 14.88 µmol
amount of ACR reduced compared with the initial content ([1]; 90°C, rutin/ACR 1/1): 96.09%
content of ACR (residual) ([1]; 90°C): 7.83 µmol
amount of ACR reduced compared with the initial content ([1]; 100°C, rutin/ACR 1/1): 98.20%
content of ACR (residual) ([1]; 100°C): 3.60 µmol
ACR removed ([1]; after 8 h of reaction, 80°C, rutin/ACR 1/1): more than 94%
content of residual ACR ([1]; molar ratio rutin/ACR 1/2, 80°C): 18.54 µmol
content of residual ACR ([1]; molar ratio rutin/ACR 4/1, 80°C): 6.69 µmol

C=CC=O [ACR, Acrolein]
cell viability (viable cell number) (Caco-2 cells [2]; Caco-2, 20 μM): 31.83%
cell viability (viable cell number) (Caco-2 cells [2]; Caco-2, 140 μM): 6.97%
IC50 (Caco-2 cells [2]; Caco-2, CCK-8, read-out: IC50 (cytotoxicity)): < 20 µM
cell viability (viable cell number) (GES-1 cells [3]; GES-1, 20 μM): 49.57%
cell viability (viable cell number) (GES-1 cells [3]; GES-1, 140 μM): 11.22%
IC50 (GES-1 cells [3]; GES-1, CCK-8, read-out: IC50 (cytotoxicity)): < 20 µM
decrease of viable cell number (GES-1 cells [3]; GES-1, up to 140 μM, 24 h as printed): 88.78%
apoptotic cells (Caco-2 cells [4]; Caco-2, 20 μM): 12.19%
number of viable cells (Caco-2 cells [4]; Caco-2, 20 μM): 87.5%
apoptotic cells (Caco-2 cells [4]; Caco-2, 40 μM): 28.59%
number of viable cells (Caco-2 cells [4]; Caco-2, 40 μM): 71.3%
apoptotic rate, times higher than that of the same concentration of RAC (Caco-2 cells [4]; Caco-2, 60 μM): 5.5 times
apoptotic cells (Caco-2 cells [4]; Caco-2, 60 μM): 59.50%
number of viable cells (Caco-2 cells [4]; Caco-2, 60 μM): 40.0%
apoptotic rate (GES-1 cells [5]; GES-1, 20 μM): 16.28%
apoptotic rate (GES-1 cells [5]; GES-1, 60 μM): 68.10%
ratio of red/green fluorescence intensity (Caco-2 cells [6]; Caco-2, 20 μM): 5.32
ratio of red/green fluorescence intensity (Caco-2 cells [6]; Caco-2, 20 μM, listed as Acrolein): 5.32 ± 0.17
ratio of red/green fluorescence intensity (Caco-2 cells [6]; Caco-2, 40 μM): 2.88 ± 0.09
ratio of red/green fluorescence intensity (Caco-2 cells [6]; Caco-2, 60 μM): 1.97
ratio of red/green fluorescence intensity (Caco-2 cells [6]; Caco-2, 60 μM, listed as Acrolein): 1.97 ± 0.06
ratio of red/green fluorescence intensity (GES-1 cells [7]; GES-1, 20 μM): 5.68
ratio of red/green fluorescence intensity (GES-1 cells [7]; GES-1, 20 μM, listed as Acrolein): 5.68 ± 0.24
ratio of red/green fluorescence intensity (GES-1 cells [7]; GES-1, 40 μM): 4.29 ± 0.17
ratio of red/green fluorescence intensity (GES-1 cells [7]; GES-1, 60 μM): 2.13
ratio of red/green fluorescence intensity (GES-1 cells [7]; GES-1, 60 μM, listed as Acrolein): 2.13 ± 0.10
